Read-outs that look alike come from different tables or passages of the source.
Legend:
P. falciparum D6 (CQS) [1] = assay: Inhibition of P. falciparum growth, CQS D6 (SYBR green I fluorescence); assay type: cell-based
Source text: (§1) Inhibition of P. falciparum growth.
(§2) CQS (D6) and CQR (Dd2 and 7G8) P. falciparum maintained continuously in culture were used ([38]). […] The fluorescence readings were plotted against log(drug), and the IC50s were obtained from curve fitting performed by nonlinear regression using either Prism (GraphPad) or Excel (Microsoft) software.

P. falciparum 7G8 (CQR) = assay: Inhibition of P. falciparum growth, CQR 7G8 (SYBR green I fluorescence); assay type: cell-based, Plasmodium falciparum
Source text: as §1, §2

P. falciparum Dd2 (CQR) [2] = assay: Inhibition of P. falciparum growth, CQR Dd2 (SYBR green I fluorescence); assay type: cell-based
Source text: as §1, §2

P. falciparum D6 (CQS) [3] = details: ref Andrews et al. (32); cited from earlier work
mouse spleen lymphocytes [4] = details: ref Andrews et al. (32); cited from earlier work
P. falciparum Dd2 (CQR) [5] = details: ref Andrews et al. (32); cited from earlier work
mouse spleen lymphocytes [6] = assay: Cytotoxicity against mouse spleen lymphocytes; assay type: cell-based; details: estimated ±50%
[7] = In vitro heme binding (optical titration); details: 5 μM heme, phosphate buffer 100 mM, pH 5.7; read-out: heme binding dissociation constant (Kd)
Description: In vitro heme binding and β-hematin inhibition.
A 5 mM stock solution of heme was prepared by dissolving heme chloride in 0.1 mM NaOH by incubation at 37°C for 30 min. The solution was stored at 4°C for no more than 1 month. At the beginning of each experiment, the stock heme solution was diluted to 5 μM in phosphate buffer (100 mM, pH 5.7) and allowed to equilibrate for 4 h. The 4-h equilibration allowed for the initial heme absorbance to stabilize prior to beginning the titration. Optical titrations with each compound were performed by successive addition of aliquots of its stock solution to the 5 μM heme solution. […] Equilibrium binding constants were determined by nonlinear least-squares analysis ([39]).

[8] = Single-dose toxicity evaluation in mice; assay type: in vivo; details: for Toxicity observation: single-dose experiments on 1 or 2 mice/compound, doses limited by water solubility
Description: (§3) The compounds were first converted to water-soluble hydrochloride or phosphate salts for administration in aqueous solution. Efficacy testing was carried out using 4 different dose levels with 5 mice at each level, administered by oral gavage. […] A single-dose toxicity evaluation was also performed, using 1 or 2 mice in each case.

P. yoelii = assay: In vivo 3-day suppressive test against P. yoelii in a murine malaria model; design: species or system Plasmodium yoelii; details: mice, oral gavage, 3 daily doses, water-soluble hydrochloride or phosphate salts; errors estimated ±20%
Description: as §3, with “A selection of the compounds (compounds 9, 10, 12, 21, 23, and 24) was tested in vivo against P. yoelii in a murine malaria model. The” for “The”, “case. The doses were limited by water solubilities.” for “case.”
In vivo 3-day suppressive test.
Female CF-1 mice, at 4 to 5 weeks of age, were injected intravenously with 10^6 erythrocytes infected with P. yoelii ([43][–][45]). The following day, and then daily for a total of 3 doses, 5 mice each were administered the appropriate dose of the compound by gavage and evaluated by direct microscopic analysis of Giemsa-stained blood smears ([46]) 1 day after the final dose. The Portland State University Institutional Animal Care and Use Committee approved the protocols involving animals used in this study.

[9] = Plasmodium falciparum, D6, 72 h; read-out: IC50 (nM) for P. falciparum D6
[10] = Plasmodium falciparum, DD2, 72 h; read-out: IC50 (nM) for P. falciparum Dd2
[11] = Plasmodium falciparum, D6; read-out: IC50 from dose-response curve against CQS D6 (Fig 4a)
[12] = Plasmodium falciparum, 7G8, 72 h, read-out: IC50 (nM) for P. falciparum 7G8
[13] = Plasmodium falciparum, DD2; read-out: IC50 from dose-response curve against CQR Dd2 (Fig 4b)

Row | SMILES | IC50 (P. falciparum D6 (CQS) [1]; [9]) [nM] | IC50 (P. falciparum Dd2 (CQR) [2]; [10]) [nM] | IC50 (P. falciparum 7G8 (CQR); [12]) [nM] | also measured
1 | CCN(CC)CCCC(C)Nc1ccnc2cc(Cl)ccc12 (centres unmarked) [CQ, chloroquine] | – | – | – | IC50 (P. falciparum D6 (CQS) [1]; Plasmodium falciparum, D6, 72 h, read-out: IC50 (nM) for P. falciparum D6): 6.9 nM; IC50 (P. falciparum D6 (CQS) [1]; Plasmodium falciparum, D6, read-out: IC50 from dose-response curve against CQS D6 (Fig 4a)): 7.9 nM; IC50 (P. falciparum 7G8 (CQR); Plasmodium falciparum, 7G8, 72 h, read-out: IC50 (nM) for P. falciparum 7G8, CQR 7G8, 72 h, averages from at least 3 runs, normalized to CQ 108 nM, uncertainty ±15%): 106 nM; IC50 (P. falciparum 7G8 (CQR); read-out: IC50 (nM) for P. falciparum 7G8, CQR 7G8, 72 h, averages from at least 3 runs, normalized to CQ 108 nM, uncertainty ±15%): 108 nM; IC50 (P. falciparum Dd2 (CQR) [2]; Plasmodium falciparum, DD2, 72 h, read-out: IC50 (nM) for P. falciparum Dd2): 102 nM; IC50 (P. falciparum Dd2 (CQR) [2]; Plasmodium falciparum, DD2, read-out: IC50 from dose-response curve against CQR Dd2 (Fig 4b)): 71.7 nM
2 | O=C(CNCCNc1ccnc2cc(Cl)ccc12)N(Cc1ccccc1)Cc1ccccc1 [Compound 2] | – | – | – | IC50 (P. falciparum D6 (CQS) [3]): 14 nM; Cytotoxicity (mouse spleen lymphocytes [4]): 62,000 nM; IC50 (P. falciparum Dd2 (CQR) [5]): 16 nM
3 | Clc1ccc2c(NCCCN3CCN(c4ccccc4-c4ccccc4)CC3)ccnc2c1 [Compound 6, N-(3-(4-(Biphenyl-2-yl)piperazin-1-yl)propyl)-7-chloroquinolin-4-amine] | 1.2 | 2.6 | – | Cytotoxicity (mouse spleen lymphocytes [6]): 1,700 nM
4 | Clc1ccc2c(NCCCN3CCN(c4cccc(-c5ccccc5)c4)CC3)ccnc2c1 [Compound 7, N-(3-(4-(Biphenyl-3-yl)piperazin-1-yl)propyl)-7-chloroquinolin-4-amine] | 0.9 | 1.8 | – | Cytotoxicity (mouse spleen lymphocytes [6]): 2,100 nM
5 | Clc1ccc2c(NCCCN3CCN(c4ccc(-c5ccccc5)cc4)CC3)ccnc2c1 [Compound 8, N-(3-(4-(Biphenyl-4-yl)piperazin-1-yl)propyl)-7-chloroquinolin-4-amine] | 0.6 | 0.9 | 0.2 | IC50 (P. falciparum D6 (CQS) [1]; [11]): 0.7 nM; Cytotoxicity (mouse spleen lymphocytes [6]): 2,200 nM; IC50 (P. falciparum Dd2 (CQR) [2]; [13]): 0.7 nM
6 | Clc1ccc2c(NCCCN3CCN(c4ccccc4)CC3)ccnc2c1 [Compound 9, 7-Chloro-N-(3-(4-phenylpiperazin-1-yl)propyl)quinolin-4-amine] | 0.4 | 0.7 | 0.6 | IC50 (P. falciparum D6 (CQS) [1]; [11]): 0.5 nM; Kd [7]: ~5000 nM; Cytotoxicity (mouse spleen lymphocytes [6]): 6,400 nM; Toxicity observation [8]: Well tolerated at 300 mg/kg; dose without evident toxicity as multiple of the ED50 ([8]; single-dose toxicity screen in mice vs ED50 against P. yoelii): 150 fold; IC50 (P. falciparum Dd2 (CQR) [2]; [13]): 0.5 nM; ED50 (P. yoelii): 2 mg/kg/day
7 | Clc1ccc(N2CCN(CCCNc3ccnc4cc(Cl)ccc34)CC2)cc1 [Compound 10, 7-Chloro-N-(3-(4-(4-chlorophenyl)piperazin-1-yl)propyl)quinolin-4-amine] | 0.3 | 0.5 | 0.1 | Toxicity observation [8]: Death at 260 mg/kg, delayed death of 2/4 mice at 64 mg/kg; ED50 (P. yoelii): 8 mg/kg/day
8 | Fc1ccc(N2CCN(CCCNc3ccnc4cc(Cl)ccc34)CC2)cc1 [Compound 11, 7-Chloro-N-(3-(4-(4-fluorophenyl)piperazin-1-yl)propyl)quinolin-4-amine] | 2 | 0.2 | 0.2 | Kd [7]: ~5000 nM
9 | COc1ccc(N2CCN(CCCNc3ccnc4cc(Cl)ccc34)CC2)cc1 [Compound 12, 7-Chloro-N-(3-(4-(4-methoxyphenyl)piperazin-1-yl)propyl)quinolin-4-amine] | 1.3 | 0.3 | 0.3 | Kd [7]: ~5000 nM; Toxicity observation [8]: Well tolerated at 500 mg/kg; ED50 (P. yoelii): 10 mg/kg/day
10 | FC(F)(F)c1ccc(N2CCN(CCCNc3ccnc4cc(Cl)ccc34)CC2)cc1 [Compound 13, 7-Chloro-N-(3-(4-(4-(trifluoromethyl)phenyl)piperazin-1-yl)propyl)quinolin-4-amine] | 0.06 | 0.2 | 0.3 | Kd [7]: ~5000 nM
11 | O=[N+]([O-])c1ccc(N2CCN(CCCNc3ccnc4cc(Cl)ccc34)CC2)cc1 [Compound 14, 7-Chloro-N-(3-(4-(4-nitrophenyl)piperazin-1-yl)propyl)quinolin-4-amine] | 0.9 | 0.8 | 0.3 | –
12 | Cc1ccc(N2CCN(CCCNc3ccnc4cc(Cl)ccc34)CC2)cc1 [Compound 15, 7-Chloro-N-(3-(4-p-tolylpiperazin-1-yl)propyl)quinolin-4-amine] | 0.1 | 1.3 | 0.5 | –
13 | Clc1ccc2c(NCCCN3CCN(Cc4ccccc4)CC3)ccnc2c1 [Compound 17, N-(3-(4-Benzylpiperazin-1-yl)propyl)-7-chloroquinolin-4-amine] | 2.4 | 7 | 9 | –
14 | Clc1ccc2c(NCCCN3CCN(CCc4ccccc4)CC3)ccnc2c1 [Compound 18, 7-Chloro-N-(3-(4-phenethylpiperazin-1-yl)propyl)quinolin-4-amine] | 0.5 | 1 | 1.2 | –
15 | Clc1ccc2c(NCCCN3CCN(Cc4cccc5ccccc45)CC3)ccnc2c1 [Compound 19, 7-Chloro-N-(3-(4-(naphthalen-1-ylmethyl)piperazin-1-yl)propyl)quinolin-4-amine] | 1.1 | 1.1 | 0.8 | –
16 | O=C(c1ccccc1)N1CCN(CCCNc2ccnc3cc(Cl)ccc23)CC1 [Compound 20, N-(3-(4-Benzoylpiperazin-1-yl)propyl)-7-chloroquinolin-4-amine] | 4 | 7 | 7 | –
17 | Clc1ccc2c(NCCCN3CCN(c4ccccn4)CC3)ccnc2c1 [Compound 21, 7-Chloro-N-(3-(4-(pyridin-2-yl)piperazin-1-yl)propyl)quinolin-4-amine] | 0.7 | 1.1 | 0.9 | Cytotoxicity (mouse spleen lymphocytes [6]): 13,300 nM; Toxicity observation [8]: Well tolerated at 435 mg/kg; ED50 (P. yoelii): 6 mg/kg/day
18 | Clc1ccc2c(NCCCN3CCN(c4ccncc4)CC3)ccnc2c1 [Compound 22, 7-Chloro-N-(3-(4-(pyridin-4-yl)piperazin-1-yl)propyl)quinolin-4-amine] | 0.5 | 1.6 | 1.1 | –
19 | Clc1ccc2c(NCCCN3CCN(c4ncccn4)CC3)ccnc2c1 [Compound 23, 7-Chloro-N-(3-(4-(pyrimidin-2-yl)piperazin-1-yl)propyl)quinolin-4-amine] | 1.4 | 2.3 | – | Cytotoxicity (mouse spleen lymphocytes [6]): 28,000 nM; ED50 (P. yoelii): 7 mg/kg/day
20 | O=[N+]([O-])c1ccc(N2CCN(CCCNc3ccnc4cc(Cl)ccc34)CC2)nc1 [Compound 24, 7-Chloro-N-(3-(4-(5-nitropyridin-2-yl)piperazin-1-yl)propyl)quinolin-4-amine] | 0.3 | 0.5 | 0.5 | Toxicity observation [8]: Well tolerated at 153 mg/kg^c; ED50 (P. yoelii): 3 mg/kg/day
21 | FC(F)(F)c1ccc(N2CCN(CCCNc3ccnc4cc(Cl)ccc34)CC2)nc1 [Compound 25, 7-Chloro-N-(3-(4-(5-(trifluoromethyl)pyridin-2-yl)piperazin-1-yl)propyl)quinolin-4-amine] | 0.5 | 0.9 | 1 | –
22 | O=[N+]([O-])c1cnc(N2CCN(CCCNc3ccnc4cc(Cl)ccc34)CC2)c([N+](=O)[O-])c1 [Compound 26, 7-Chloro-N-(3-(4-(3,5-dinitropyridin-2-yl)piperazin-1-yl)propyl)quinolin-4-amine] | 0.5 | 0.9 | 0.9 | –
23 | O=[N+]([O-])c1ccc(N2CCN(CCCNc3ccnc4cc(Cl)ccc34)CC2)c([N+](=O)[O-])c1 [Compound 27, 7-Chloro-N-(3-(4-(2,4-dinitrophenyl)piperazin-1-yl)propyl)quinolin-4-amine] | 0.3 | 0.5 | 0.4 | –
